In the NIST ThermoML archive (doi:10.1016/j.fluid.2016.01.028):
± gives the expanded uncertainty stated by the source.

Settings: Liquid, Closed cell (Static) method

| Structure (SMILES) | vapor or sublimation pressure (283.15 K) [kPa] | vapor or sublimation pressure (293.15 K) [kPa] | vapor or sublimation pressure (303.15 K) [kPa] | vapor or sublimation pressure (313.15 K) [kPa] | vapor or sublimation pressure (323.15 K) [kPa] |
| --- | --- | --- | --- | --- | --- |
| FCC(F)(F)F [1,1,1,2-tetrafluoroethane] | 415.5 ± 1.2 | 572.4 ± 1.3 | 768.9 ± 1.5 | 1015.5 ± 1.8 | 1317.2 ± 2.1 |
| CC(C)C [2-methylpropane] | 220.9 ± 1.1 | 302.7 ± 1.1 | 404.4 ± 1.2 | 531.3 ± 1.3 | 684.2 ± 1.4 |
| C=C(F)C(F)(F)F [2,3,3,3-tetrafluoro-1-propene] | 437.9 ± 1.2 | 591.5 ± 1.3 | 782.9 ± 1.5 | 1018.2 ± 1.8 | 1302.4 ± 2.1 |
